Entries after “also recorded” stand apart in the source; their conditions may differ. {P} = phosphate
Experiments:
[1] = tested on: intracellular ROS in normal newborn human dermal fibroblasts; assay: Dichlorofluorescein diacetate (DCF) assay of intracellular ROS, FACScan; assay type: cell-based; details: for DCF fluorescence (intracellular ROS) compared to diluent: 100 μM pTT / pCC, 40 μM TO / TOC1 / TOC2
Protocol: Normal newborn human dermal fibroblasts were cultured from foreskin specimens into DMEM supplemented with 10% CS as described above. Due to the large number of cells needed for time course experiments, and to minimize donor variability, in dichlorofluorescein diacetate FACS experiments cells from three different donors were combined.
Purified lyophilized oligonucleotides were obtained and prepared for cell treatment as described above. All treatments involved a single stimulation with T-oligo, after which cells were harvested at various times without medium changes or addition of more T-oligo. Treatment doses were 100 μM pTT and 40 μM TO except in dose-response experiments; these concentrations were determined in previous experiments to be optimal for measuring DNA damage responses using these T-oligos.^142,150,228
Complementary and scrambled oligonucleotides were chosen for each T-oligo. pAA and pCC were used as controls for pTT, and the complementary 11-base pCTAACCCTAAC (TOC1, SEQ ID NO: 22) and a scrambled sequence pGATCGATCGAT (TOC2, SEQ ID NO: 23) were used as controls for the T-oligo TO.
(§1) H2DCFDA stock solution (1 mg/ml) was thawed and diluted in Hanks' Balanced Salt Solution, 1× liquid without phenol red (GIBCO Invitrogen, Carlsbad, Calif.), to a working concentration of 100 μM immediately before use. H2DCFDA is converted by intracellular esterases to dichlorofiuorescein (DCF). When oxidized by intracellular ROS, it will fluoresce at 530 nm when excited by 480 nm light. […] All work involving DCF was conducted in minimal room light. Peaks on FACScan plots that shift to the right indicate greater fluorescence and increased ROS levels. For NADPH oxidase inhibitor studies using DPI,^237,239 the DPI stock solution was added directly to DCF treatment solution to achieve a final DPI treatment concentration of 50 μM.
Hydrogen peroxide positive controls were used to rule out saturation of the DCF probe in the T-oligo dose response experiments. Fibroblasts were exposed to 1 mM, 5 mM and 10 mM H2O2 solutions in PBS for 15 minutes following DCF incubation for 30 minutes, harvested and analyzed as described above.
The horseradish peroxidase assay data was analyzed by one-way ANOVA. DCF assay FACScan results were analyzed using Cellquest software (Becton-Dickinson, Calif.). All peak positions on x-axis of the fluorescence histogram plot were determined visually (using the software) and recorded as a number. Peak position values were then compared using one-way ANOVA.

[2] = tested on: NAD(P)H oxidase; assay: DCF assay with NADPH oxidase inhibitor DPI; assay type: cell-based, human; details: 50 μM DPI in DCF solution; pTT or TO treated fibroblasts
Protocol: as §1
Because p53-dependent ROS production in fibroblasts has been attributed to NAD(P)H oxidase activity,^169 a specific NADPH oxidase inhibitor, diphenyliodonium chloride (DPI),^239 was added to the DCF assay medium to determine the role of NADPH oxidases in T-oligo mediated ROS induction.

Compound | DCF fluorescence (intracellular ROS) compared to diluent [1] | further results
pCTAACCCTAAC (5' {P}, sugars by position and backbone not given here) [TOC1, complementary 11-base control oligonucleotide for TO, reference compound] | not significantly different from each other | –
pGATCGATCGAT (5' {P}, sugars by position and backbone not given here) [TOC2, reference compound] | not significantly different from each other; also recorded: overlapping with diluent curve | –
[Cl-].c1ccc([I+]c2ccccc2)cc1 [DPI, diphenyliodonium chloride] | – | effect of DPI on T-oligo-stimulated ROS (DCF fluorescence) [2]: consistently abrogated the increase in ROS stimulated by T-oligos
OO [H2O2, Hydrogen peroxide, reference compound] | – | DCF peak shift of positive control ([1]; 1 mM H2O2 for 15 minutes): greater shift than any of the T-oligo treatments

— patent publication US20100286247A1, “Methods of Protection from Oxidative Stress” (Trustees of Boston University, priority 2005, published 2010)
